PubChem BioAssay (NCI)
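Each compound was tested at five concentrations against cells in 96-well plates for 48 hours. Abbreviation: GI50, concentration required for 50% inhibition of growth. Definition used: TGI = concentration required for complete inhibition of growth.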

How the values were obtained:
Test in all cases: inhibition of tumour cell growth, NCI panel, 48 h
MALME-3M melanoma = tested on: MALME-3M melanoma
HOP-92 NSCLC = tested on: HOP-92 NSCLC
DU-145 prostate = tested on: DU-145 prostate
MDA-MB-435 = tested on: MDA-MB-435
ACHN renal = tested on: ACHN renal
A498 renal = tested on: A498 renal
MDA-MB-468 breast = tested on: MDA-MB-468 breast
SF-539 CNS = tested on: SF-539 CNS
HCT-116 colon = tested on: HCT-116 colon
K-562 leukemia = tested on: K-562 leukemia
SR leukemia = tested on: SR leukemia
OVCAR-5 ovarian = tested on: OVCAR-5 ovarian
PC-3 prostate = tested on: PC-3 prostate
NCI-H23 lung = tested on: NCI-H23 lung
HOP-62 NSCLC = tested on: HOP-62 NSCLC
KM12 colon = tested on: KM12 colon
IGROV1 ovarian = tested on: IGROV1 ovarian
OVCAR-3 ovarian = tested on: OVCAR-3 ovarian
T-47D breast = tested on: T-47D breast
M14 melanoma = tested on: M14 melanoma
U251 CNS = tested on: U251 CNS
A549 NSCLC = tested on: A549 NSCLC
OVCAR-8 ovarian = tested on: OVCAR-8 ovarian
NCI-H226 lung = tested on: NCI-H226 lung
UACC-62 melanoma = tested on: UACC-62 melanoma
SK-MEL-5 melanoma = tested on: SK-MEL-5 melanoma
MCF7 breast = tested on: MCF7 breast

Cc1ccccc1Nc1nnc(-c2c[nH]c3ccccc23)o1
GI50 (MALME-3M melanoma): 0.869 µM | TGI (MALME-3M melanoma): > 100 µM | GI50 (HOP-92 NSCLC): 5.66 µM | TGI (HOP-92 NSCLC): > 100 µM | GI50 (DU-145 prostate): 5.47 µM | TGI (DU-145 prostate): > 100 µM | GI50 (MDA-MB-435): 0.298 µM | TGI (MDA-MB-435): 1.13 µM | GI50 (ACHN renal): 4.32 µM | TGI (ACHN renal): > 100 µM | GI50 (A498 renal): > 100 µM | TGI (A498 renal): > 100 µM | GI50 (MDA-MB-468 breast): 2.21 µM | TGI (MDA-MB-468 breast): 7.14 µM | GI50 (SF-539 CNS): 1.9 µM | TGI (SF-539 CNS): 5.22 µM | GI50 (HCT-116 colon): 5.96 µM | TGI (HCT-116 colon): > 100 µM | GI50 (K-562 leukemia): 0.531 µM | TGI (K-562 leukemia): > 100 µM | GI50 (SR leukemia): 0.527 µM | TGI (SR leukemia): > 100 µM | GI50 (OVCAR-5 ovarian): 4.13 µM | TGI (OVCAR-5 ovarian): > 100 µM | GI50 (PC-3 prostate): 3.41 µM | TGI (PC-3 prostate): > 100 µM | GI50 (NCI-H23 lung): 3.38 µM | TGI (NCI-H23 lung): > 100 µM | GI50 (HOP-62 NSCLC): 3.6 µM | TGI (HOP-62 NSCLC): > 100 µM | GI50 (KM12 colon): 4.6 µM | TGI (KM12 colon): > 100 µM | GI50 (IGROV1 ovarian): 2.32 µM | TGI (IGROV1 ovarian): > 100 µM | GI50 (OVCAR-3 ovarian): 0.889 µM | TGI (OVCAR-3 ovarian): > 100 µM | GI50 (T-47D breast): 12.6 µM | TGI (T-47D breast): > 100 µM | GI50 (M14 melanoma): 1.32 µM | TGI (M14 melanoma): > 100 µM | GI50 (U251 CNS): 3.18 µM | TGI (U251 CNS): > 100 µM | GI50 (A549 NSCLC): 6.09 µM | TGI (A549 NSCLC): > 100 µM | GI50 (OVCAR-8 ovarian): 3.44 µM | TGI (OVCAR-8 ovarian): > 100 µM | GI50 (NCI-H226 lung): 4.44 µM | TGI (NCI-H226 lung): > 100 µM | GI50 (UACC-62 melanoma): 1.13 µM | TGI (UACC-62 melanoma): > 100 µM | GI50 (SK-MEL-5 melanoma): 2.32 µM | TGI (SK-MEL-5 melanoma): > 100 µM | GI50 (MCF7 breast): 3.02 µM | TGI (MCF7 breast): > 100 µM
